Laboratory results: US5100647A, “Method and formulations for the therapy of cystic fibrosis, Bartter's syndrome and secretory diarrheas, and for diuretic treatment” (The Trustees of the University of Pennsylvania, priority 1990, dated 1992)
Where a name gives a salt, the structure may show the parent alone. Read-outs that look alike come from different tables or passages of the source.

Columns and labels:
[1] = cited from earlier work
[2] = cited from earlier work; remark: listed apart in the source
[3] = test system: potassium conductance of pancreatic beta cells; conditions: cited from earlier work
potassium channel = conditions: requires millimolar concentrations; cited from earlier work
sodium channels = sodium channels (Cavia porcellus, UniProt A0A286Y3I8); conditions: requires millimolar concentrations; cited from earlier work
[4] = test system: chloride conductance of CF/T43 cells; assay: whole-cell chloride current in CF/T43 cystic fibrosis airway epithelial cells; type: cell-based, human
Experimental: An aliquot of cells from a cell line, CF/T43, derived from airway epithelia from a patient with cystic fibrosis were used.
Data were obtained using internal and external solutions as described by McCann, Li and Welsh in studies of whole cell ICI in normal human airway epithelial cells so as to be able to compare our data with theirs. The internal solutions are cesium-based providing a minimal internal calcium concentration (nominally 0-10 nM, with EGTA) and the external solution is sodium-based with symmetrical CI concentrations of 140 mM. No cyclic nucleotides are included in the solutions and amiloride is added to block the sodium conductance.

chloride channel = assay: whole-cell patch clamp of chloride channel current in isolated cells from a cultured kidney cell line
Text: Using isolated cells from a cultured kidney cell line, we tested the effects of various doses of Sparteine applied to the interior and exterior of the cell on current through the chloride channel as measured with standard patch clamp electrophysiologic techniques.

C1CCN2C[C@@H]3C[C@@H](CN4CCCC[C@@H]34)[C@H]2C1 [Sparteine sulfate]
water solubility and stability [1]: water soluble and stable
insulin secretion ([2]; healthy human beings): enhance insulin secretion
glucagon secretion ([2]; insulin-dependent diabetics): increase glucagon secretion
insulin secretion ([2]; non-diabetic obese individuals, intravenous administration): significant increase in insulin secretion
potassium conductance of pancreatic beta cells [3]: decreases the potassium conductance

C1CCN2CC3CC(CN4CCCCC34)C2C1 (stereo not drawn) [Sparteine, dodecahydro-7,14-methano-2H,6H-di-pyrido[1,2-a:1',2'-e][1,5]diazocine]
action on olfactory tract axons (potassium channel): potassium channel blocker
antiarrhythmic classification due to effects on sodium channels (sodium channels): Class 1 cardiac antiarrhythmic
current amplitude ([4]; external 0.1 nM, no cyclic nucleotides, minimal internal calcium, amiloride present): marked increase in current amplitude
reversal potential of the induced current ([4]; external 0.1 nM, symmetrical Cl 140 mM): 0 mV
induction of chloride current in cystic fibrosis cells ([4]; pM, absence of cytosolic Ca^2+ and cyclic nucleotides): induces a chloride current
reversibility of the activated current ([4]; washout): reversible
chloride current relative to the control value (chloride channel; Sparteine 0.1, 50 and 500 μM): 10-20 X
peak current through the chloride channel (chloride channel; Sparteine 0.1, 50 and 500 μM, cells dialyzed with ATP, no cAMP, 10 nM calcium, depolarized to +70 mV from holding potential -45 mV): 80-200 μA/cm^2
time course of the activated current with increasing dose (chloride channel; above 0.1 μM): increasingly rapid decline in the activated current
effect of externally applied compound on chloride current (chloride channel; external, 0.1 to 10 nM): marked augmentation of the chloride current
effect on the chloride channel at higher concentrations (chloride channel; higher (micromolar-millimolar) concentrations): potent inhibitor
effect on the chloride channel at low concentrations (chloride channel; low (pico-nanomolar) concentrations): very potent activator

calcium
maximum chloride current with known activator added to the internal solution (chloride channel; depolarized to +70 mV from -45 mV): 40-50
